Data set [1] concerns AMPA receptor. To be noted: in vivo PET, rat; cited from earlier work.
Data set [2] has as its target AMPA receptor. The experiment in a line: In vitro receptor binding assay ([^3H]perampanel, Ki value measurement). Particulars: rat forebrain membranes, 90 min at 4° C., Scatchard analysis. Also on record: species or system rat (Sprague-Dawley). How it is done:
Homogenate of forebrains of rats (Sprague-Dawley) was prepared in ice-cold solution containing 0.32 M sucrose and 0.1 mM EGTA (pH 7.4). Homogenate was centrifuged in 1000 g for 10 min and supernatant was collected. This supernatant was centrifuged in 30000 g for 20 min. Precipitate was suspended in 1 mM EGTA/Tris buffer (pH 8.0) by sonication, subjected osmotic lysis on ice for 10 min and centrifuged in 30000 g for 20 min. This procedure was conducted twice. Precipitate was suspended in 50 mM Tris HCl buffer (pH 7.4) by sonication and centrifuged in 30000 g for 20 min. This procedure was conducted three times. Precipitate was suspended in 50 mM Tris HCl buffer (pH 7.4) by sonication and stocked at −80° C. On the day of binding assay, stocked solution was suspended in 50 mM Tris HCl buffer (pH 7.4) by sonication and centrifuged in 30000 g for 20 min. This procedure was conducted three times. Precipitate was suspended in 50 mM Tris-HCl buffer (pH 7.4) by sonication and used for binding assay.
Receptor solution was re-suspended in binding buffer (50 mM Tris-HCl, pH 7.4) to a final concentration of 0.24 mg tissue eq./assay. The incubation time for [^3H]perampanel on AMPA receptor was 90 min at 4° C. After incubation, membranes were filtered onto GF/B filter presoaked with 0.3% PEI and washed three times with ice-cold wash buffer (same as binding buffer). Each filter was placed in a vial and 6 mL of liquid scintillator reagent (Hionic-Fluor; PerkinElmer Life & Analytical Sciences) were added. Radioactivity was counted (1 min) in a liquid scintillation counter (LSC-6100, Hitachi Aloka Medical, Ltd.).
Saturation isotherms were determined by addition of various concentrations of [^3H]perampanel (1-2000 nM). Nonspecific bindings for [^3H]perampanel was measured in the presence of 15 μM unlabeled compounds. Ki value was calculated by Scatchard analysis of saturation isotherm experiment.

In data set [3] the test system is AMPA receptor. The experiment in a line: In vivo PET blocking study in monkey. Also noted: species or system Rhesus monkey. To be noted: i.v. pretreatment 0.02 to 0.1 mg/kg, 15 min prior to radioligand (Example 4); CTX, HIP, CER, THA, STR. How it is done:
FIG. 4. Rhesus monkey PET blocking study of the compound of Example 4. In vivo area under time-radioactivity curves of to the region of interests (CTX, HIP, cerebellum (CER), thalamus (THA), striatum (STR)) in the absence (control) and blockade by pretreatment with the unlabeled compound. Radioactivity is expressed as percentage of standardized uptake value (% SUV) and integrated radioactivity of the specific binding versus reference region (brain stem; BS) from 0 to 40 min during the PET scan.
For the PET blocking study, unlabeled compound (Reference Example 9, 0.1 mg/kg/5 mL to 0.02 mg/kg/5 mL of saline with 10% DMSO, 3 doses) was intravenously administrated via the crural vein as a single slow bolus over 10 min, 15 min prior to radioligand administration. All PET scans were acquired from the same two monkeys (n=2).
Area under time-radioactivity curves of to the region of interests (CTX, HIP, cerebellum (CER), thalamus (THA), STR) in the absence (control) and blockade by pretreatment with Reference Example 9. Radioactivity is expressed as percentage of standardized uptake value (% SUV) and integrated radioactivity from 0 to 40 min during the PET scan.

For `COc1cc2c(cc1O[11CH3])C(c1ccc(Cl)cc1)N(C(C)=O)CC2` (stereo not shown) [N-acetyl-1-(4-chlorophenyl)-6-methoxy-7-[^11C]methoxy-1,2,3,4-tetrahydroisoquinoline], in the data set with AMPA receptor [1], the “clearance from the CNS” value was “rapid clearance from the CNS” and the specific binding entry is reported as “low specific binding”.

For the molecule `CNc1cccc(-n2cc(-c3ncccn3)cc(-c3ccccc3C#N)c2=O)c1` [Reference Example 9, 2-(1-(3-(methylamino)phenyl)-2-oxo-5-(pyrimidin-2-yl)-1,2-dihydropyridin-3-yl)benzonitrile], the inhibitory constant (Ki) on AMPA receptor [2] is 0.01 µM. Besides, the “radioactivity (area under time-radioactivity curves, % SUV, 0 to 40 min) compared to control” value with AMPA receptor [3] is given as “markedly reduced the radioactivity in dose dependent manner”.

On to `N#Cc1ccccc1-c1cc(-c2ncccn2)cn(-c2cccc(F)c2)c1=O` [Reference Example 15, 2-(1-(3-fluorophenyl)-2-oxo-5-(pyrimidin-2-yl)-1,2-dihydropyridin-3-yl)benzonitrile], for which the Ki on AMPA receptor [2] was determined as 0.02 µM.

As to `N#Cc1ccccc1-c1cc(-c2ncccn2)cn(-c2ccc(F)c(N)c2)c1=O` [Reference Example 19, 2-(1-(3-amino-4-fluorophenyl)-2-oxo-5-(pyrimidin-2-yl)-1,2-dihydropyridin-3-yl)benzonitrile], the Ki on AMPA receptor [2] came to 0.005 µM.

Regarding `O=c1c(-c2ccccc2F)cc(-c2ncccn2)cn1-c1cccc(CF)c1` [Reference Example 22, 3-(2-fluorophenyl)-1-(3-(fluoromethyl)phenyl)-5-(pyrimidin-2-yl)pyridin-2(1H)-one], at AMPA receptor [2], the affinity corresponds to a Ki of 0.022 µM.

Values taken from patent US20160045625A1, “[11C] AND [18F] LABELED 1,3-DIPHENYL-5-(PYRIMIDIN-2-YL)-PYRIDIN-2(1H)-ONE DERIVATIVES AND THEIR USE FOR PET IMAGING OF THE AMPA RECEPTOR” (EISAI R&D MANAGEMENT CO., LTD., priority 2013, published 2016).
